# Experimental data: ChEMBL document CHEMBL1129417, “Glucose transport-enhancing and hypoglycemic activity of 2-methyl-2-phenoxy-3-phenylpropanoic acids” (1996)
# Tests used:
# 3T3-L1 [1] = assay: In vitro measurements 2-Deoxyglucose (2DG) uptake in vehicle treated 3T3-L1 adipocytes at 100 uM dose.; format: functional
# Mus musculus [2] = assay: In vivo hypoglycemic activity expressed as glucose lowering relative to positive control in 6-8 week old C57BL/6J ob/ob mouse at 10 mg/kg; format: functional
# Mus musculus [3] = assay: compound was tested in vivo for hypoglycemic activity expressed as Glucose lowering relative to positive control in 6-8 week old C57BL/6J ob/ob mouse at 50 mg/kg; format: functional
# Mus musculus [4] = assay: In vivo hypoglycemic activity expressed as glucose lowering relative to positive control in 6-8 week old C57BL/6J ob/ob mouse at 5 mg/kg.; format: functional
# Rattus norvegicus [5] = organism: Rattus norvegicus; assay: Inhibition of gluconeogenesis in rat; format: functional
# Rattus norvegicus [6] = organism: Rattus norvegicus; assay: Percentage inhibition of Glucagon-stimulated Gluconeogenesis in Isolated Rat Hepatocytes in vitro; format: functional, Hepatocyte
# Rattus norvegicus [7] = organism: Rattus norvegicus; assay: Percentage inhibition of basal stimulated Gluconeogenesis in Isolated Rat Hepatocytes in vitro; format: functional, Hepatocyte
# 3T3-L1 [8] = assay: compound was evaluated for their acute effects in vitro by measuring 2-Deoxyglucose (2DG) uptake in vehicle treated 3T3-L1 adipocytes at 0.5 uM dose.; format: functional
# 3T3-L1 [9] = assay: Acute effects in vitro by measuring 2-deoxyglucose (2DG) uptake in vehicle treated 3T3-L1 adipocytes at 10 uM dose.; format: functional
# 3T3-L1 [10] = assay: compound was evaluated for their acute effects in vitro by measuring 2-Deoxyglucose (2DG) uptake in vehicle treated 3T3-L1 adipocytes at 1 uM dose.; format: functional
# 3T3-L1 [11] = assay: Acute effects in vitro by measuring 2-deoxyglucose (2DG) uptake in vehicle treated 3T3-L1 adipocytes at 30 uM dose.; format: functional
# 3T3-L1 [12] = assay: In vitro by measurements of 2-Deoxyglucose (2DG) uptake in vehicle treated 3T3-L1 adipocytes at 3 uM dose.; format: functional
# 3T3-L1 [13] = assay: In vitro measurements of 2-Deoxyglucose (2DG) uptake in vehicle treated 3T3-L1 adipocytes at 60 uM dose.; format: functional
# Mus musculus [14] = assay: In vivo hypoglycemic activity expressed as glucose lowering relative to positive control in 6-8 week old C57BL/6J ob/ob mouse at 1 mg/kg.; format: functional
# Mus musculus [15] = assay: compound was tested in vivo for hypoglycemic activity expressed as Glucose lowering relative to positive control in 6-8 week old C57BL/6J ob/ob mouse at 2.5 mg/kg; format: functional
Structure (SMILES),Basal uptake (3T3-L1 [1]) [%],Hypoglycemic activity (Mus musculus [2]) [%],Hypoglycemic activity (Mus musculus [3]) [%],Hypoglycemic activity (Mus musculus [4]) [%],"ED50 (Rattus norvegicus [5]; Rattus norvegicus, read-out: ED50) [mg/kg]",Inhibition (Rattus norvegicus [6]) [%],Inhibition (Rattus norvegicus [7]) [%],Basal uptake (3T3-L1 [8]) [%],Basal uptake (3T3-L1 [9]) [%],Basal uptake (3T3-L1 [10]) [%],Basal uptake (3T3-L1 [11]) [%],Basal uptake (3T3-L1 [12]) [%],Basal uptake (3T3-L1 [13]) [%],Hypoglycemic activity (Mus musculus [2]; 10 mg/kg) [%],Hypoglycemic activity (Mus musculus [14]) [%],Hypoglycemic activity (Mus musculus [15]) [%],ED50 (Rattus norvegicus [5]) [mg/kg]
CC(C)c1ccc(OC(Cc2ccc(Cl)cc2)C(=O)O)cc1 (stereo not drawn),150,58,82,26,10,20,32,–,–,–,–,–,–,–,–,–,–
CC(C)c1ccc(OC(C)(C(=O)O)C(C)c2ccc(Cl)cc2)cc1 (stereo in doubt; 84),–,–,–,77,–,–,–,98,131,99,128,102,214,142,<0,62,2.5
